Test system: total cLP cells from WT mice
Assay: Co-culture of total cLP cells with Lactobacillus strains, gene expression
Assay type: cell-based, mouse
Details: 1×10^5 cLP cells with 1×10^6 CFU, 12 h
Experimental: FIG. 7C: 1×10^5 total cLP cells from WT mice were co-cultured with 1×10^6 CFU (/well) L. murinus, L. animalis, L. salivarius, L. johnsonii or L. reuteri for 12 h. Cytokine gene expression was determined by real-time RT-PCR. Data in (FIGS. 7A-C) are representative of two independent experiments.
Total RNA was extracted with Mammalian Total RNA Miniprep kit (Sigma-Aldrich, St. Louis, U.S.) according to the manufacturer's instructions. RNA was denatured in the presence of an oligo dT primer and then reverse transcribed with the High Capacity cDNA Reverse Transcription Kit (Applied Biosystems, San Francisco, U.S.). Quantitative real-time RT-PCRs were performed with a SYBR Green qPCR kit (Carlsbad, U.S.) and an iCycler system (Bio-Rad, Hercules, U.S.) with the sets of primers described in Table 1, and the expression of each mRNA encoding cytokine was normalized with gapdh expression level.

Substance: Lactobacillus reuteri
- expression of these genes (Tgfb, Il10, Foxp3, Rorc): did not modify

Source: patent US9738731B2, “Lactic acid bacterium growth enhancer, regulatory T-cell number increasing agent, method of enhancing growth of lactic acid bacterium, method of increasing number of regulatory T-cells, method of evaluating regulatory T-cell number increasing effect, and method of evaluating lactic acid growth …” (TOKYO UNIVERSITY OF SCIENCE FOUNDATION, priority 2013, dated 2017)
